# Experimental data taken from publication PMC3985256, “Synthesis of Brominated 2-Phenitidine Derivatives as Valuable Inhibitors of Cholinesterases for the Treatment of Alzheimer’s Disease” (Iranian Journal of Pharmaceutical Research : IJPR, 2014).
# Biological target: acetylcholinesterase (AChE) (Homo sapiens, UniProt P22303)
# Test: Acetylcholinesterase inhibition assay
# Format: biochemical
# Conditions: 0.5 mM; n = 3, mean ± sem; read-out: Acetylcholinestrase (AChE) inhibition (%) at 0.5 mM
# Procedure: The AChE inhibition activity was performed according to the reported method ([14]) with slight modifications. Total volume of the reaction mixture was 100 μL. It contained 60 μL Na2HPO4 buffer with concentration of 50 mM and pH 7.7. Ten μL test compound (0.5 mM well^-1) was added, followed by the addition of 10 μL (0.005 unit well^-1) enzyme. The contents were mixed and pre-read at 405 nm. Then contents were pre-incubated for 10 min at 37 °C. The reaction was initiated by the addition of 10 μL of 0.5 mM well^-1 substrate (acetylthiocholine iodide), followed by the addition of 10 μL DTNB (0.5 mM well^-1). After 15 min of incubation at 37 °C, absorbance was measured at 405 nm. Synergy HT (BioTek, USA) 96-well plate reader was used in all experiments. All experiments were carried out with their respective controls in triplicate. […] The percent inhibition was calculated by the help of following equation )[19] (.
# (§1) Inhibition %=Control-Test/Control×100
# (§2) IC50 values (concentration at which there is 50% enzyme inhibition) of compounds were calculated using EZ-Fit Enzyme kinetics software (Perella Scientific Inc. Amherst, USA).
# acetylcholinesterase (AChE), sequence (P22303 32-614): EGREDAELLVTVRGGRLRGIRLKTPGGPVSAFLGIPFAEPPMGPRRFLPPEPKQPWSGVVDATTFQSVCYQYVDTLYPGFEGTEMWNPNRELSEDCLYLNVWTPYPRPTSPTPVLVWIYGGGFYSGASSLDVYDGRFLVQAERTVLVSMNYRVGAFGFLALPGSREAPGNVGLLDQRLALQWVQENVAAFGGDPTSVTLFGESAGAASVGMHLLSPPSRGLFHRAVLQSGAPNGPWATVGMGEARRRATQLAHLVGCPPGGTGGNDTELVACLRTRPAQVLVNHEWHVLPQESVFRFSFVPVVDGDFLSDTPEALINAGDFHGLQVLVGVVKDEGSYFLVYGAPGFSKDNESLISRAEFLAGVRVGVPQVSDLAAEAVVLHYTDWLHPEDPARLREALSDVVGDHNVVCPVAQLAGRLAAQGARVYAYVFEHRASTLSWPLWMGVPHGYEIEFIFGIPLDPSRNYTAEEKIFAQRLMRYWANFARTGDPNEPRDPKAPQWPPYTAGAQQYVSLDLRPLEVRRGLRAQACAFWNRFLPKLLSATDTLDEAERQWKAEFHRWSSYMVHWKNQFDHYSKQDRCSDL
row,Compound,inhibition at 500 µM [%]
1,"C=CCN(c1cc(Br)c(Br)cc1OCC)S(=O)(=O)c1ccccc1 [Compound 6c, N-Allyl -N-(4,5-dibromo-2-ethoxyphenyl)benzenesulfonamide]",72.22 ± 0.55
2,"CCOc1cc(Br)c(Br)cc1N(C(C)C)S(=O)(=O)c1ccccc1 [Compound 6b, N-Isopropyl -N-(4,5-dibromo-2-ethoxyphenyl)benzenesulfonamide]",79.07 ± 0.38
3,CCOc1cc(Br)c(Br)cc1N(Cc1ccc(Br)cc1)S(=O)(=O)c1ccccc1 [Compound 6h],74.31 ± 0.11
4,"CCOc1cc(Br)c(Br)cc1N(CCc1ccccc1)S(=O)(=O)c1ccccc1 [Compound 6f, N-Phenylethyl-N-(4,5-dibromo-2-ethoxyphenyl)benzenesulfonamide]",77.58 ± 0.66
5,"CCOc1cc(Br)c(Br)cc1NS(=O)(=O)c1ccccc1 [Compound 4, N-(4,5-dibromo-2-ethoxyphenyl)benzenesulfonamide]",44.15 ± 0.19
6,CCOc1cc(Br)c(Br)cc1N(Cc1ccccc1Cl)S(=O)(=O)c1ccccc1 [Compound 6k],86.71 ± 0.22

# Same assay, conditions: n = 3, mean ± sem
row,Compound,Acetylcholinestrase (AChE) (IC50)
1,"CCOc1cc(Br)c(Br)cc1NS(=O)(=O)c1ccccc1 [Compound 4, N-(4,5-dibromo-2-ethoxyphenyl)benzenesulfonamide]",NIL

# Same assay, conditions: n = 3, mean ± sem; read-out: Acetylcholinestrase (AChE) (IC50)
row,Compound,IC50 [µM]
1,"C=CCN(c1cc(Br)c(Br)cc1OCC)S(=O)(=O)c1ccccc1 [Compound 6c, N-Allyl -N-(4,5-dibromo-2-ethoxyphenyl)benzenesulfonamide]",143.91 ± 0.08
2,"CCOc1cc(Br)c(Br)cc1N(C(C)C)S(=O)(=O)c1ccccc1 [Compound 6b, N-Isopropyl -N-(4,5-dibromo-2-ethoxyphenyl)benzenesulfonamide]",87.31 ± 0.11
3,CCOc1cc(Br)c(Br)cc1N(Cc1ccc(Br)cc1)S(=O)(=O)c1ccccc1 [Compound 6h],145.6 ± 0.21
4,"CCOc1cc(Br)c(Br)cc1N(CCc1ccccc1)S(=O)(=O)c1ccccc1 [Compound 6f, N-Phenylethyl-N-(4,5-dibromo-2-ethoxyphenyl)benzenesulfonamide]",86.41 ± 0.51
5,CCOc1cc(Br)c(Br)cc1N(Cc1ccccc1Cl)S(=O)(=O)c1ccccc1 [Compound 6k],52.41 ± 0.27

# Biological target: T1, lipoxygenase (LOX) (Glycine max, UniProt P08170)
# T1 sequence (P08170 1-839): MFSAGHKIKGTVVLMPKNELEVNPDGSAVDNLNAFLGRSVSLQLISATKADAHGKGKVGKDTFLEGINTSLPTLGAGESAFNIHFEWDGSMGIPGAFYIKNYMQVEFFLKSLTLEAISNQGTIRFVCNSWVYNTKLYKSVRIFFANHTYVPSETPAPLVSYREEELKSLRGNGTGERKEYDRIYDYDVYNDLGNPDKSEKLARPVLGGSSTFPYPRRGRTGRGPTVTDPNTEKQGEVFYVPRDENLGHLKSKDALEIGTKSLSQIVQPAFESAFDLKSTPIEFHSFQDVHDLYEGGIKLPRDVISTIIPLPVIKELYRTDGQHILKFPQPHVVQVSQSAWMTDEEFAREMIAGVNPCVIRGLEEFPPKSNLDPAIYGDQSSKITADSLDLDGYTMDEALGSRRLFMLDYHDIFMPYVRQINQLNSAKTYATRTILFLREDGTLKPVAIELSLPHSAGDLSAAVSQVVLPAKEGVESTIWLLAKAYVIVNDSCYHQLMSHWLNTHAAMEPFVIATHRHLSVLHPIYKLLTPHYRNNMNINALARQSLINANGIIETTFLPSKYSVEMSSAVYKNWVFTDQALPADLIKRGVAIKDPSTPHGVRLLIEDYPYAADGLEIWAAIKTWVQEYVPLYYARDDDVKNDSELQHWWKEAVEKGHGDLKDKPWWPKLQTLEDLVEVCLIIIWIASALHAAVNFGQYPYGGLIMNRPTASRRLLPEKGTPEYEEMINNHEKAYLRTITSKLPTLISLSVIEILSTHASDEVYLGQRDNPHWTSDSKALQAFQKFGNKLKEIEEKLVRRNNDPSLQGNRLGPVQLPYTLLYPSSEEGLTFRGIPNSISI
# Test: Lipoxygenase inhibition assay
# Format: biochemical
# Conditions: 0.5 mM; n = 3, mean ± sem
# Procedure: Lipoxygenase activity was assayed according to the reported method ([18]-[20]) but with slight modifications. A total volume of 200 μL assay mixture contained 150 μL sodium phosphate buffer (100 mM, pH 8.0), 10 μL test compound and 15 μL purified lipoxygenase enzyme (Sigma, USA). The contents were mixed and pre-read at 234 nm and pre-incubated for 10 min at 25 °C. The reaction was initiated by the addition of 25 μL substrate solution. The change in absorbance was observed after 6 min at 234 nm. Synergy HT (BioTek, USA) 96-well plate reader was used in all experiments. All reactions were performed in triplicates. The positive and negative controls were included in the assay. Baicalein (0.5 mM well^-1) was used as a positive control. The percentage inhibition was calculated by formula as follows.
row,Compound,inhibition at 500 µM [%]
1,"C=CCN(c1cc(Br)c(Br)cc1OCC)S(=O)(=O)c1ccccc1 [Compound 6c, N-Allyl -N-(4,5-dibromo-2-ethoxyphenyl)benzenesulfonamide]",66.26 ± 0.54
2,"CCOc1cc(Br)c(Br)cc1N(C(C)C)S(=O)(=O)c1ccccc1 [Compound 6b, N-Isopropyl -N-(4,5-dibromo-2-ethoxyphenyl)benzenesulfonamide]",83.54 ± 0.33
3,CCOc1cc(Br)c(Br)cc1N(Cc1ccc(Br)cc1)S(=O)(=O)c1ccccc1 [Compound 6h],37.04 ± 0.28
4,"CCOc1cc(Br)c(Br)cc1N(CCc1ccccc1)S(=O)(=O)c1ccccc1 [Compound 6f, N-Phenylethyl-N-(4,5-dibromo-2-ethoxyphenyl)benzenesulfonamide]",90.02 ± 0.37
5,"CCOc1cc(Br)c(Br)cc1NS(=O)(=O)c1ccccc1 [Compound 4, N-(4,5-dibromo-2-ethoxyphenyl)benzenesulfonamide]",11.6 ± 0.27
6,CCOc1cc(Br)c(Br)cc1N(Cc1ccccc1Cl)S(=O)(=O)c1ccccc1 [Compound 6k],33.23 ± 0.22

# Same assay, conditions: n = 3, mean ± sem
Compound,IC50 [µM],Lipoxygenase (LOX) (IC50)
"O=c1cc(-c2ccccc2)oc2cc(O)c(O)c(O)c12 [Baicalein, reference compound]",22.4 ± 1.3,–
CCOc1cc(Br)c(Br)cc1N(Cc1ccc(Br)cc1)S(=O)(=O)c1ccccc1 [Compound 6h],–,NIL
"CCOc1cc(Br)c(Br)cc1NS(=O)(=O)c1ccccc1 [Compound 4, N-(4,5-dibromo-2-ethoxyphenyl)benzenesulfonamide]",–,NIL
CCOc1cc(Br)c(Br)cc1N(Cc1ccccc1Cl)S(=O)(=O)c1ccccc1 [Compound 6k],–,NIL

# Biological target: butyrylcholinesterase (BChE) (Homo sapiens, UniProt P06276)
# Test: Butyrylcholinesterase inhibition assay
# Format: biochemical
# Conditions: 0.5 mM; n = 3, mean ± sem; read-out: Butyrylcholinesterase (BChE) inhibition (%) at 0.5 mM
# Procedure: The BChE inhibition activity was performed according to the reported method ([14],[17]) with slight modifications. Total volume of the reaction mixture was 100 μL containing 60 μL, Na2HPO4 buffer, 50 mM and pH 7.7. Ten μL test compound 0.5 mM well^-1, followed by the addition of 10 μL (0. 5 unit well^-1) BChE. The contents were mixed and pre-read at 405 nm. Then contents were pre-incubated for 10 min at 37 °C. The reaction was initiated by the addition of 10 μL of 0.5 mM well^-1 substrate (butyrylthiocholine bromide), followed by the addition of 10 μL DTNB (0.5 mM well^-1). After 15 min of incubation at 37 °C, absorbance was measured at 405 nm. Synergy HT (BioTek, USA) 96-well plate reader was used in all experiments. All experiments were carried out with their respective controls in triplicate. […] The percent inhibition was calculated by the help of following equation.
# as §1, §2
# butyrylcholinesterase (BChE), sequence (P06276 29-602): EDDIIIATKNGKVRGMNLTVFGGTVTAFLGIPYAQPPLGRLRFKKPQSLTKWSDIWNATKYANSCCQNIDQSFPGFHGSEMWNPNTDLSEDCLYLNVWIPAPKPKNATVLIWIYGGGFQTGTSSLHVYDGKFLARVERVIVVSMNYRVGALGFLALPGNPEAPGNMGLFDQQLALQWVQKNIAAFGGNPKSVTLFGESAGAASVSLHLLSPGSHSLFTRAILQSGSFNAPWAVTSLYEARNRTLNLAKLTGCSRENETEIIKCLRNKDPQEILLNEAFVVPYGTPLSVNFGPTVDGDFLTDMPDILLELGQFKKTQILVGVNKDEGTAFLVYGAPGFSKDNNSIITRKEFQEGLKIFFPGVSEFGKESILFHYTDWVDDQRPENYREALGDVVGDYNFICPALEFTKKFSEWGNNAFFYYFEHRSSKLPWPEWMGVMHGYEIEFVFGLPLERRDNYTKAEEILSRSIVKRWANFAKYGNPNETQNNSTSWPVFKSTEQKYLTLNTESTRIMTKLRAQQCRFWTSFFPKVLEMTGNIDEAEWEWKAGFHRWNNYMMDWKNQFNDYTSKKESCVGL
row,Compound,inhibition at 500 µM [%]
1,"C=CCN(c1cc(Br)c(Br)cc1OCC)S(=O)(=O)c1ccccc1 [Compound 6c, N-Allyl -N-(4,5-dibromo-2-ethoxyphenyl)benzenesulfonamide]",80.75 ± 0.68
2,"CCOc1cc(Br)c(Br)cc1N(C(C)C)S(=O)(=O)c1ccccc1 [Compound 6b, N-Isopropyl -N-(4,5-dibromo-2-ethoxyphenyl)benzenesulfonamide]",56.57 ± 0.55
3,CCOc1cc(Br)c(Br)cc1N(Cc1ccc(Br)cc1)S(=O)(=O)c1ccccc1 [Compound 6h],87.91 ± 0.25
4,"CCOc1cc(Br)c(Br)cc1N(CCc1ccccc1)S(=O)(=O)c1ccccc1 [Compound 6f, N-Phenylethyl-N-(4,5-dibromo-2-ethoxyphenyl)benzenesulfonamide]",88.73 ± 0.14
5,"CCOc1cc(Br)c(Br)cc1NS(=O)(=O)c1ccccc1 [Compound 4, N-(4,5-dibromo-2-ethoxyphenyl)benzenesulfonamide]",80.75 ± 0.17
6,CCOc1cc(Br)c(Br)cc1N(Cc1ccccc1Cl)S(=O)(=O)c1ccccc1 [Compound 6k],93.66 ± 0.82

# Same assay, conditions: n = 3, mean ± sem; read-out: Butyrylcholinesterase (BChE) (IC50)
row,Compound,IC50 [µM]
1,"C=CCN(c1cc(Br)c(Br)cc1OCC)S(=O)(=O)c1ccccc1 [Compound 6c, N-Allyl -N-(4,5-dibromo-2-ethoxyphenyl)benzenesulfonamide]",68.41 ± 0.21
2,"CCOc1cc(Br)c(Br)cc1N(C(C)C)S(=O)(=O)c1ccccc1 [Compound 6b, N-Isopropyl -N-(4,5-dibromo-2-ethoxyphenyl)benzenesulfonamide]",> 300
3,CCOc1cc(Br)c(Br)cc1N(Cc1ccc(Br)cc1)S(=O)(=O)c1ccccc1 [Compound 6h],60.11 ± 0.34
4,"CCOc1cc(Br)c(Br)cc1N(CCc1ccccc1)S(=O)(=O)c1ccccc1 [Compound 6f, N-Phenylethyl-N-(4,5-dibromo-2-ethoxyphenyl)benzenesulfonamide]",53.41 ± 0.51
5,"CCOc1cc(Br)c(Br)cc1NS(=O)(=O)c1ccccc1 [Compound 4, N-(4,5-dibromo-2-ethoxyphenyl)benzenesulfonamide]",70.21 ± 0.18
6,CCOc1cc(Br)c(Br)cc1N(Cc1ccccc1Cl)S(=O)(=O)c1ccccc1 [Compound 6k],42.21 ± 0.25
